Experiments:
corn [1] = test: Test B pre-/postemergence herbicide test; type: in vivo, Zea mays; conditions: for Plant response rating, Corn / Corn plant response rating (0 to 100 scale): preemergence
Summary of the method: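 Pre: seeds sown, then sprayed. Post: 1–4-leaf plants (2–18 cm) sprayed at the same time. Paddy: flooded, treated at 2-leaf stage. Formulation: non-phytotoxic solvent with surfactant. Greenhouse 13–15 days; visual 0–100 score relative to controls.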

wild oat = test: Test B postemergence herbicide test; type: in vivo, Avena fatua
Summary of the method: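 Read-out: visual comparison with controls, scored 0 to 100, where 100 means complete control and 0 no effect. Formulated chemicals were applied postemergence to plants 2–18 cm tall (1- to 4-leaf), or to flooded-paddy plants at the 2-leaf stage, then held 13 to 15 days under glass.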

Surinam grass = test: Test C pre-/postemergence herbicide test; type: in vivo, Urochloa decumbens; conditions: for Plant response rating, Surinam Grass: preemergence; for Surinam Grass plant response rating: Preemergence, scale 0 to 100, 0 no effect, 100 complete control
Summary of the method: (§1)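 Seeds were planted and sprayed preemergence with test chemicals in a non-phytotoxic solvent mixture containing surfactant; postemergence treatments went onto plants 2 to 18 cm tall (1- to 4-leaf stage). After 12 to 14 days in a greenhouse, injury was rated visually against untreated controls on a 0–100 scale.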

corn [2] = test: Test C pre-/postemergence herbicide test; type: in vivo, Zea mays; conditions: for Plant response rating, Corn: preemergence; for Corn plant response rating: Preemergence, scale 0 to 100, 0 no effect, 100 complete control
Summary of the method: as §1

large crabgrass = test: Test C pre-/postemergence herbicide test; type: in vivo, Digitaria sanguinalis; conditions: for Plant response rating, Crabgrass, Large: preemergence; for Crabgrass, Large plant response rating: Preemergence, scale 0 to 100, 0 no effect, 100 complete control
Summary of the method: as §1

johnsongrass = test: Test C pre-/postemergence herbicide test; type: in vivo, Sorghum halepense; conditions: for Plant response rating, Johnsongrass: preemergence; for Johnsongrass plant response rating: Preemergence, scale 0 to 100, 0 no effect, 100 complete control
Summary of the method: as §1

yellow nutsedge = test: Test C pre-/postemergence herbicide test; type: in vivo, Cyperus esculentus; conditions: for Plant response rating, Nutsedge, Yellow: preemergence; for Nutsedge, Yellow plant response rating: Preemergence, scale 0 to 100, 0 no effect, 100 complete control
Summary of the method: as §1

pigweed = test: Test C pre-/postemergence herbicide test; type: in vivo, Amaranthus retroflexus; conditions: for Plant response rating, Pigweed: preemergence; for Pigweed plant response rating: Preemergence, scale 0 to 100, 0 no effect, 100 complete control
Summary of the method: as §1

soybean = test: Test C pre-/postemergence herbicide test; type: in vivo, Glycine max; conditions: for Plant response rating, Soybean: preemergence; for Soybean plant response rating: Preemergence, scale 0 to 100, 0 no effect, 100 complete control
Summary of the method: as §1

velvetleaf = test: Test C pre-/postemergence herbicide test; type: in vivo, Abutilon theophrasti; conditions: for Plant response rating, Velvetleaf: preemergence; for Velvetleaf plant response rating: Preemergence, scale 0 to 100, 0 no effect, 100 complete control
Summary of the method: as §1

[3] = 500 g ai/ha, visual rating 0-100, 0 no effect, 100 complete control
[4] = postemergence, 125 g ai/ha, visual rating, scale 0 (no effect) to 100 (complete control)
[5] = postemergence, 500 g ai/ha, visual rating, scale 0 (no effect) to 100 (complete control)
[6] = 125 g ai/ha, scale 0 (no effect) to 100 (complete control), visual, 12 to 14 days
[7] = 250 g ai/ha, scale 0 to 100 (0 no effect, 100 complete control), visual, 12 to 14 days
[8] = Postemergence, 250 g ai/ha, scale 0 (no effect) to 100 (complete control)
[9] = postemergence, 62 g ai/ha, scale 0 to 100
[10] = 125 g ai/ha, 0 = no effect, 100 = complete control
[11] = 500 g ai/ha, scale 0 to 100 (0 no effect, 100 complete control), visual, 12 to 14 days

Row | Compound | Corn plant response rating (corn [1]; [4]) | Corn plant response rating (corn [1]; [5]) | Oat, Wild plant response rating (wild oat; [4]) | Oat, Wild plant response rating (wild oat; [5]) | Plant response rating, Surinam Grass (Surinam grass; 62 g ai/ha, scale 0 to 100) | Plant response rating, Surinam Grass (Surinam grass; [6]) | Surinam Grass plant response rating (Surinam grass; 500 g ai/ha) | Plant response rating, Corn (corn [2]; 62 g ai/ha, scale 0 to 100) | Plant response rating, Corn (corn [2]; [6]) | Corn plant response rating (corn [2]; 500 g ai/ha) | Plant response rating, Crabgrass, Large (large crabgrass; 62 g ai/ha, scale 0 to 100) | Plant response rating, Crabgrass, Large (large crabgrass; [6]) | Plant response rating, Johnsongrass (johnsongrass; 62 g ai/ha, scale 0 to 100) | Plant response rating, Johnsongrass (johnsongrass; [6]) | Plant response rating, Nutsedge, Yellow (yellow nutsedge; 62 g ai/ha, scale 0 to 100) | Plant response rating, Nutsedge, Yellow (yellow nutsedge; [6]) | Plant response rating, Pigweed (pigweed; 62 g ai/ha, scale 0 to 100) | Plant response rating, Pigweed (pigweed; [6]) | Plant response rating, Soybean (soybean; 62 g ai/ha, scale 0 to 100) | Plant response rating, Velvetleaf (velvetleaf; 62 g ai/ha, scale 0 to 100) | other results
1 | CCNC(=O)c1cc(C)nc(NC(=O)c2cc(C(C)(C)C)nn2CC)c1 [Compound 149] | 10 | 30 | 10 | 30 | 0 | 5 | 85 | 0 | 0 | 10 | 20 | 90 | 10 | 60 | 0 | 0 | 20 | 100 | 0 | 0 | Plant response rating, Corn (corn [1]; [3]): 50; Plant response rating, Corn (corn [1]; 125 g ai/ha, 0 to 100 scale, 0 is no effect, 100 is complete control): 10; Plant response rating, Corn (corn [2]; [7]): 10; Plant response rating, Crabgrass, Large (large crabgrass; [7]): 100; Crabgrass, Large plant response rating (large crabgrass; 500 g ai/ha): 100; Johnsongrass plant response rating (johnsongrass; 500 g ai/ha): 100; Nutsedge, Yellow plant response rating (yellow nutsedge; 500 g ai/ha): 0; Pigweed plant response rating (pigweed; 500 g ai/ha): 100; Plant response rating, Soybean (soybean; [6]): 0; Soybean plant response rating (soybean; 500 g ai/ha): 0; Plant response rating, Velvetleaf (velvetleaf; [6]): 0; Velvetleaf plant response rating (velvetleaf; 500 g ai/ha): 60
2 | CCNC(=O)c1ccnc(NC(=O)c2cc(C(C)(C)C)nn2CC)c1 [Compound 152] |  |  |  |  | 40 | 60 | 100 | 40 | 45 | 70 | 100 | 100 | 80 | 100 | 10 | 30 | 85 | 100 | 0 | 0 | Corn plant response rating (corn [1]; [8]): 30; Corn plant response rating (corn [1]; [9]): 20; Oat, Wild plant response rating (wild oat; [8]): 20; Oat, Wild plant response rating (wild oat; [9]): 10; Plant response rating, Corn (corn [2]; [7]): 50; Plant response rating, Crabgrass, Large (large crabgrass; [7]): 100; Crabgrass, Large plant response rating (large crabgrass; 500 g ai/ha): 100; Johnsongrass plant response rating (johnsongrass; 500 g ai/ha): 100; Nutsedge, Yellow plant response rating (yellow nutsedge; 500 g ai/ha): 70; Pigweed plant response rating (pigweed; 500 g ai/ha): 100; Plant response rating, Soybean (soybean; [6]): 10; Soybean plant response rating (soybean; 500 g ai/ha): 100; Plant response rating, Velvetleaf (velvetleaf; [6]): 100; Velvetleaf plant response rating (velvetleaf; 500 g ai/ha): 100
3 | CCc1nn(C(C)(C)C)cc1C(=O)Nc1cccc(C(C)=NO)c1 [Compound 188] | 10 | 20 | 20 | 20 | 20 | 30 | 80 | 0 | 0 | 5 | 95 | 95 | 0 | 20 | 0 | 0 | 95 | 95 | 0 | 0 | Corn plant response rating (0 to 100 scale) (corn [1]; [10]): 10; Plant response rating, Corn (corn [1]; [3]): 50; Plant response rating, Corn (corn [2]; [7]): 0; Plant response rating, Crabgrass, Large (large crabgrass; [7]): 95; Crabgrass, Large plant response rating (large crabgrass; 500 g ai/ha): 100; Johnsongrass plant response rating (johnsongrass; 500 g ai/ha): 75; Nutsedge, Yellow plant response rating (yellow nutsedge; 500 g ai/ha): 0; Pigweed plant response rating (pigweed; 500 g ai/ha): 100; Plant response rating, Soybean (soybean; [6]): 0; Soybean plant response rating (soybean; 500 g ai/ha): 0; Plant response rating, Velvetleaf (velvetleaf; [6]): 0; Velvetleaf plant response rating (velvetleaf; 500 g ai/ha): 75
4 | C=CCNC(=O)c1cccc(NC(=O)c2sc(C(C)(C)C)nc2C)c1 [Compound 202] | 10 | 10 | 10 | 10 | 10 | 20 | 60 | 0 | 0 | 10 | 80 | 95 | 0 | 40 | 0 | 0 | 95 | 100 | 0 | 5 | Corn plant response rating (0 to 100 scale) (corn [1]; [10]): 0; Plant response rating, Corn (corn [1]; [3]): 20; Plant response rating, Surinam Grass (Surinam grass; 250 g ai/ha, scale 0-100): 40; Plant response rating, Corn (corn [2]; 250 g ai/ha, scale 0-100): 0; Plant response rating, Crabgrass, Large (large crabgrass; 250 g ai/ha, scale 0-100): 95; Crabgrass, Large plant response rating (large crabgrass; 500 g ai/ha): 95; Plant response rating, Johnsongrass (johnsongrass; 250 g ai/ha, scale 0-100): 70; Johnsongrass plant response rating (johnsongrass; 500 g ai/ha): 75; Plant response rating, Nutsedge, Yellow (yellow nutsedge; 250 g ai/ha, scale 0-100): 0; Nutsedge, Yellow plant response rating (yellow nutsedge; 500 g ai/ha): 0; Plant response rating, Pigweed (pigweed; 250 g ai/ha, scale 0-100): 100; Pigweed plant response rating (pigweed; 500 g ai/ha): 100; Plant response rating, Soybean (soybean; [6]): 0; Plant response rating, Soybean (soybean; 250 g ai/ha, scale 0-100): 0; Soybean plant response rating (soybean; 500 g ai/ha): 30; Plant response rating, Velvetleaf (velvetleaf; [6]): 10; Plant response rating, Velvetleaf (velvetleaf; 250 g ai/ha, scale 0-100): 100; Velvetleaf plant response rating (velvetleaf; 500 g ai/ha): 100
5 | CCc1nc(C(C)(C)C)sc1C(=O)Nc1cccc(C(=O)NCC2CC2)n1 [Compound 215] | 0 | 10 | 10 | 20 | 0 |  |  | 0 | 20 |  | 0 | 70 | 0 | 20 | 0 | 0 | 80 | 100 | 0 | 0 | Corn plant response rating (0 to 100 scale) (corn [1]; [10]): 0; Plant response rating, Corn (corn [1]; 500 g ai/ha, visual rating, 0 = no effect, 100 = complete control): 0; Plant response rating, Surinam Grass (Surinam grass; 250 g ai/ha, scale 0-100): 30; Plant response rating, Surinam Grass (Surinam grass; [11]): 50; Plant response rating, Corn (corn [2]; 250 g ai/ha, scale 0-100): 20; Plant response rating, Corn (corn [2]; [11]): 50; Plant response rating, Crabgrass, Large (large crabgrass; 250 g ai/ha, scale 0-100): 85; Plant response rating, Crabgrass, Large (large crabgrass; [11]): 100; Plant response rating, Johnsongrass (johnsongrass; 250 g ai/ha, scale 0-100): 50; Plant response rating, Johnsongrass (johnsongrass; [11]): 85; Plant response rating, Nutsedge, Yellow (yellow nutsedge; 250 g ai/ha, scale 0-100): 0; Plant response rating, Nutsedge, Yellow (yellow nutsedge; [11]): 0; Plant response rating, Pigweed (pigweed; 250 g ai/ha, scale 0-100): 100; Plant response rating, Pigweed (pigweed; [11]): 100; Plant response rating, Soybean (soybean; 250 g ai/ha, scale 0-100): 0; Plant response rating, Soybean (soybean; [11]): 0; Plant response rating, Velvetleaf (velvetleaf; 250 g ai/ha, scale 0-100): 40; Plant response rating, Velvetleaf (velvetleaf; [11]): 100

Reference: patent publication US20060069132A1, “Azolecarboxamide herbicides” (priority 2004, published 2006)
